Test results: patent US20050220906A1, “Pharmaceutical composition for treating rheumatism and the preparation thereof” (priority 2002, published 2005)

Experiments:
[1] = test system: PCA in rat; assay: Passive cutis anaphylactic reaction (PCA); type: in vivo; conditions: 0.1 g/kg
Procedure: The rats were injected with the egg albumn at 10 mg/kg in the muscle. At the same time, all the rats were injected with 2×10^10 (0.2 ml) bordetella pertussis in the abdominal cavity for sensitization. 2 weeks later, all the rats were killed to sample the blood. All the blood samples were separated for preparing the serum.
60 rats, 150˜200 g, half male and half female, were divided into 6 groups at random. In the light narcosis condition induced by aether, each rat was cut the fleece in the back and injected with the 2 concentrations of anti-egg-album serum 0.1 ml under the skin at the fairless place. The serums were diluted on the rates of 1:5(d1) and 1:10(d2) before the experiment. 48 hours later, all the rats were attacked by intravenous injecting the 0.5% evans blue normal saline solution 1 ml which containing 1 mg egg albumin. 20 minutes later, the rats were killed by decapitation. The rats' back skin were dissected and turned over. According to the dark and light and area of the blue stains exudated from the vessels, all the rats were evaluated by several people. The skin stained by the evens blue were scissored and soaked in 5 ml 0.1% sodium sulfate acetone (7:3) solution for 48 hours. Then it was centrifugated to separate the supernatant liquor. The supernates were measured the optical density at the wavelength 590 nm to calculate the degree of the PCA reaction and the inhibiting percent.

[2] = test system: DTH caused by DNFB; assay: Delayed hypersensitivity (DTH) caused by DNFB in the mouse ear; type: in vivo, NIH mouse; conditions: 0.003 g/kg, administration day 0˜5
Procedure: Each mouse was led to hypersensitivity reaction by using the 1% DNFB acetone solution on the dosage of 0.025 ml at the right place of the abdomen where the pilus had been cut yet. Using the same solution on the same place was to enhance the hypersensitivity reaction on the third day. On the fifth day, all the mice were smeared with the 1% DNFB edible oil solution at the mice's right ears on the dosage of 0.01 ml each. 24 hours later, all the mice were killed. The mouse's 2 ears were weighted by the torsion balance and the difference of the 2 ears was recorded as the DTH degree caused by the DNFB. The experiment was carried out on the different immune and administration processes.
The immune and administration processes is as following: [drawing 1]

[3] = test system: macrophage; assay: CRBC phagocytosis of abdominal macrophages; type: in vivo, mouse; conditions: 0.005 g/kg, 7 days
Procedure: 50 NIH mice, 18˜22 g weight, half male and half female, were divided into 5 groups and drenched with the correspondent medicine solutions on the same volumn. The administration was once a day for 7 days. 1 hour after the last administration, all the mice were injected with 0.2 ml 10% chick RBC into the abdominal carvity. 4 hours later, all the mice were killed and sampled the fluid in the abdomincal carvity. The liquor samples were dropped on the glass and counted the number of the macrophage which had phagocytized the CRBC and the number of the CRBC in one macrophage. (See the result in table 7)

[4] = test system: capillary permeability; assay: Capillary permeability induced by acetic acid in the abdominal cavity; type: in vivo, NIH mice; conditions: 0.15 g/kg, qd × 3
Procedure: 90 NIH mice, 18˜22 g weight, half male and half female, were divided into 9 groups and drenched with the correspondent medicine solutions of the same volumn. The medicines were drenched once a day for 3 days or just 1 time. 1 hour after the last administration, each mouse were injected with 0.7% HAC-NS solution into the abdominal cavity. At the same time, each mouse was injected with the 0.5% Evans blue-NS solution into the vessel on the dose of 0.1 ml/10 g. 30 min later; all the mice were killed by cervical disjoint. The abdominal cavity was opened and washed by the 5 ml NS. The NS used was collected and adjusted to 8 ml by the pure NS as the sample. The samples were centrifuged at 3000 rpm to get the supernate. The supernate was measured the OD at the wavelength at 590 nm. (See the result in table 8)

[5] = test system: pleuritis induced by the carrageenan; assay: Carrageenan pleuritis: exudation and inflammatory cell aggregation; type: in vivo, mice; conditions: 0.05 g/kg
Procedure: The mice were divided into 5 groups at random and injected with 0.5% Evans blue NS solution into the caudal vein on the dosage of 0.1 ml/10 g. Then the mice were injected with the 0.03 ml 1% carrageenan in the right chest cavity with the special syring niddle. 4 hours and 32 hours after the injection, the correspondent mice were killed and opend the obdominal cavity to expose the diaphragm. 2 ml of the lotion were injected to the chest cavity by 2 times with a 1 ml injector. The lotion was collected and saved in a test tube. 20 μl of the lotion collected was added into the 400 μl WBC dilution. The WBC in the mixed dilution was counted under the microscope. The rest of the lotion was centrifuged at 3000 rpm for 10 min. The supernate of the lotion was measured the OD at the wavelength of 600 nm. The OD value of the sample should be corrected with the correspondent OD value of the pure lotion. (See the result in table 9)

[6] = test system: croton oil-induced swelling; assay: Croton oil-induced swelling of the ears; type: in vivo, NIH mice; conditions: 0.003 g/kg, 3 days
Procedure: 60 NIH mice with weight of 18˜22 g, male and female accounting for half and half, were divided into 6 groups, which were drenched with the same volume and different dosage of drug liquid or tragacanth liquid, once a day, lasting 3 days. 1 hour after the final administration, 2% croton oil mixure of 0.02 ml was embrocated uniformly on the both sides of left ears of mice, and after 4 hours, the mice were snapped off its cervical vertebra and put to death. The left and right ears were cut down, then inflammatory and control ears were weighted by certain means. Difference of weight between left and right ears was the swelling extent of ears, results showing in table 11.

[7] = test system: rat AA model; assay: Preventing effect on adjuvant arthritis (AA): swelling degree; type: in vivo, SD rats; conditions: 0.01 g/kg
Procedure: (§1) 72 isogenous SD rats of the same batch, half male and half female, 180˜220 g weight, were divided randomly into 6 groups. Each group has 12 rats. Every 6 rats lived in a cage. The perimeter of the double anklejoints and the feet of the rat were measured accurately and recorded as the normal value. All the rats were drenched by the same volume of the invented medicine on the correspondent concentration or the solution of the Xihuangqi by the gastic injection. 1 hour later, all the rats were injected with 0.1 ml Freund's complete adjuvant (FCA) under the skin of the left postpedes. In the next 30 days, all the rats were drenched with the correspondent medicine once a day on the same dosage. And in these days, the rats were measured of the perimeters of the double anklejoints and the feet once a day. In this experiment, the swelling degree (Δcm) equaled to the difference value of the perimeters measured after the FCA injection and before the FCA injection. (See the result in table 1.1 and 1.2) At the end of the experiment, the major organs of the rats were weighted. (See the table 1.3, 1.4)

[8] = Body weight of AA rats (prevention experiment); type: in vivo, SD rats; conditions: 0.01 g/kg
Procedure: as §1

[9] = Organ index of AA rats (prevention experiment); type: in vivo, SD rats
Procedure: as §1

[10] = test system: AA rats; assay: Therapeutic effect on AA: swelling degree; type: in vivo, SD rats; conditions: 0.01 g/kg
Text: (§2) 50 male SD rats were divided into 5 groups at random. The model building was same to the prevention experiment, but the correspondent medicines were drenched 13 days after the injection of the FCA. The medicines were drenched once a day for 2 weeks. The swelling degree (Δcm) was the difference of the perimeters between the value of first administration day and the other days.

[11] = Organ index of AA rats (Table 1.7); type: in vivo, SD rats; conditions: 0.01 g/kg
Text: as §2

Q: Which results are given for `CN1CCC(=C2c3ccccc3CC(=O)c3sccc32)CC1` [Ketotifen]?
A: PCA absorbancy ([1]; serum d1 (1:5)): 0.033 ± 0.024; PCA value ([1]; serum d1 (1:5)): 2.78 ± 1.64; PCA absorbancy ([1]; serum d2 (1:10)): 0.027 ± 0.019; PCA value ([1]; serum d2 (1:10)): 0.67 ± 1.41

Q: For `C[C@@H]1C[C@H]2[C@@H]3CCC4=CC(=O)C=C[C@]4(C)[C@@]3(F)[C@@H](O)C[C@]2(C)[C@@]1(O)C(=O)CO` [cortisumman], which “Percent of ear swelling” value [2] is on record?
A: 13.93 ± 4.41

Q: And the Percent of inhibition [2]?
A: 59.3%

Q: Which Percent of phagocytosis [3] does the source give for `C[C@@H]1C[C@H]2[C@@H]3CCC4=CC(=O)C=C[C@]4(C)[C@@]3(F)[C@@H](O)C[C@]2(C)[C@@]1(O)C(=O)CO` [dexamethasone] here?
A: 8.33 ± 10.13 %

Q: What about the phagocytosis index [3] of the same compound?
A: 1.10 ± 0.18

Q: And the “Leakage of the tincture” value [4]?
A: 0.11 ± 0.07 OD

Q: And the Tincture exudation ([5]; 4 h)?
A: 0.085 ± 0.045 OD

Q: What about the Tincture exudation ([5]; 32 h) of the same compound?
A: 0.063 ± 0.017 OD

Q: And the “Degree of ears' swelling” value [6]?
A: 14.13 ± 5.75 mg

Q: And the inhibition at 3 mg/kg ([6]; Mus musculus, 72 h, read-out: inhibition rate)?
A: 68.2%

Q: Which results are given for `C[C@]12C=CC(=O)C=C1CC[C@@H]1[C@@H]2C(=O)C[C@@]2(C)[C@H]1CC[C@]2(O)C(=O)CO` [prednisone]?
A: Swelling degree, left anklejoint and foot ([7]; 1 d): 0.64 ± 0.14 Δcm; Swelling degree, left anklejoint and foot ([7]; 2 d): 0.64 ± 0.16 Δcm; Swelling degree, left anklejoint and foot (Table 1.2) ([7]; 2 d): 0.20 ± 0.06 Δcm; Swelling degree, left anklejoint and foot ([7]; 3 d): 0.50 ± 0.26 Δcm; Swelling degree, left anklejoint and foot ([7]; 9 d): 0.46 ± 0.25 Δcm; Swelling degree, left anklejoint and foot (Table 1.2) ([7]; 9 d): 0.08 ± 0.08 Δcm; Swelling degree, left anklejoint and foot ([7]; 12 d): 0.72 ± 0.46 Δcm; Swelling degree, left anklejoint and foot (Table 1.2) ([7]; 12 d): 0.21 ± 0.16 Δcm; Swelling degree, left anklejoint and foot ([7]; 14 d): 0.87 ± 0.46 Δcm; Swelling degree, left anklejoint and foot (Table 1.2) ([7]; 14 d): 0.44 ± 0.43 Δcm; Swelling degree, left anklejoint and foot ([7]; 16 d): 1.28 ± 0.69 Δcm; Swelling degree, left anklejoint and foot (Table 1.2) ([7]; 16 d): 0.99 ± 0.63 Δcm; Swelling degree, left anklejoint and foot (Table 1.2) ([7]; 18 d): 0.84 ± 0.74 Δcm; Swelling degree, left anklejoint and foot ([7]; 20 d): 1.03 ± 0.67 Δcm; Swelling degree, left anklejoint and foot (Table 1.2) ([7]; 20 d): 0.82 ± 0.72 Δcm; Swelling degree, left anklejoint and foot ([7]; 22 d): 1.05 ± 0.69 Δcm; Swelling degree, left anklejoint and foot (Table 1.2) ([7]; 22 d): 0.79 ± 0.74 Δcm; Swelling degree, left anklejoint and foot ([7]; 24 d): 0.90 ± 0.64 Δcm; Swelling degree, left anklejoint and foot (Table 1.2) ([7]; 24 d): 0.75 ± 0.67 Δcm; Swelling degree, left anklejoint and foot ([7]; 26 d): 0.86 ± 0.65 Δcm; Swelling degree, left anklejoint and foot (Table 1.2) ([7]; 26 d): 0.68 ± 0.64 Δcm; Swelling degree, left anklejoint and foot ([7]; 28 d): 0.85 ± 0.59 Δcm; Swelling degree, left anklejoint and foot (Table 1.2) ([7]; 28 d): 0.71 ± 0.67 Δcm; BW at 1 month later [8]: 244 ± 31 g; BW change [8]: -21 g; Initiative BW [8]: 264 ± 55 g; Organ index [(organ weight/body weight)/100] Liver ([9]; 0.01 g/kg): 3.04 ± 0.20; Organ index [(organ weight/body weight)/100] Spleen ([9]; 0.01 g/kg): 0.32 ± 0.08; Organ index [(organ weight/body weight)/100] Thymus ([9]; 0.01 g/kg): 0.050 ± 0.060; Organ index [(organ weight/body weight)/100] adrenal gland ([9]; 0.01 g/kg): 0.020 ± 0.004; atrophy of the thymus and adrenal gland ([9]; AA rats, tables 1.4 and 1.7): atrophied; Swelling degree, left anklejoint and foot ([10]; 1 d): 1.78 ± 0.51 Δcm; Swelling degree, left anklejoint and foot ([10]; 2 d): 1.70 ± 0.51 Δcm; Swelling degree, right anklejoint and foot ([10]; 2 d): 0.10 ± 0.13 Δcm; Swelling degree, left anklejoint and foot ([10]; 4 d): 1.63 ± 0.50 Δcm; Swelling degree, right anklejoint and foot ([10]; 4 d): 0.15 ± 0.28 Δcm; Swelling degree, left anklejoint and foot ([10]; 6 d): 1.58 ± 0.50 Δcm; Swelling degree, right anklejoint and foot ([10]; 6 d): 0.11 ± 0.25 Δcm; Swelling degree, left anklejoint and foot ([10]; 8 d): 1.27 ± 0.46 Δcm; Swelling degree, right anklejoint and foot ([10]; 8 d): −0.08 ± 0.34 Δcm; Swelling degree, left anklejoint and foot ([10]; 10 d): 1.09 ± 0.54 Δcm; Swelling degree, right anklejoint and foot ([10]; 10 d): −0.13 ± 0.28 Δcm; Swelling degree, left anklejoint and foot ([10]; 12 d): 0.94 ± 0.50 Δcm; Swelling degree, right anklejoint and foot ([10]; 12 d): −0.26 ± 0.36 Δcm; Swelling degree, left anklejoint and foot ([10]; 14 d): 0.94 ± 0.42 Δcm; Swelling degree, right anklejoint and foot ([10]; 14 d): −0.33 ± 0.39 Δcm; Organ index [(organ weight/body weight)/100] Liver [11]: 3.52 ± 0.35; Organ index [(organ weight/body weight)/100] Spleen [11]: 0.28 ± 0.047; Organ index [(organ weight/body weight)/100] Thymus [11]: 0.05 ± 0.011; Organ index [(organ weight/body weight)/100] adrenal gland [11]: 0.02 ± 0.0043
